Literature values as cited in publication PMC9736374, “Design, Synthesis and Antimicrobial Properties of New Tetracyclic Quinobenzothiazine Derivatives” (International Journal of Molecular Sciences, 2022).

Tested on: MRSA 63718
Design: method as in PMID 25692135
Conditions: cited from earlier work

## CN[C@H](CC(C)C)C(=O)N[C@H]1C(=O)N[C@@H](CC(N)=O)C(=O)N[C@H]2C(=O)N[C@H]3C(=O)N[C@H](C(=O)N[C@H](C(=O)O)c4cc(O)cc(O)c4-c4cc3ccc4O)[C@H](O)c3ccc(c(Cl)c3)Oc3cc2cc(c3O[C@@H]2O[C@H](CO)[C@@H](O)[C@H](O)[C@H]2O[C@H]2C[C@](C)(N)[C@H](O)[C@H](C)O2)Oc2ccc(cc2Cl)[C@H]1O [vancomycin]
  MIC of vancomycin: 2 µg/mL
